Experimental data as given in US20110104121A1, “Female Reproductive Tract and Anal Prophylaxes” (priority 2008, published 2011).

How the values were obtained:
[1] = test system: Fallopian tube epithelial cells (FTEC); experiment: CCL20/MIP3α production by Fallopian tube epithelial cells on Poly(I:C) treatment; assay type: cell-based, human
Description: (§1) Materials and Methods. Source of Tissues Human uterine and Fallopian tube tissues were obtained from women undergoing hysterectomy. Tissues used in this study were collected from patients with benign conditions such as fibroids distal from the site of pathology. The sections were examined by a pathologist and proclaimed to be free of pathological lesions. A total of nine different patients were used to obtain uterine epithelial cells and a total of seven patients were used to obtain Fallopian tube epithelial cells.
(§2) Epithelial cells were isolated according to known methods (Fahey, et al. (1999) supra; Fahey, et al. (1998) supra) as described herein.
(§3) To establish a cell culture system of polarized human uterine epithelial cells (UTEC) and Fallopian tube epithelial cells (FTEC) with both apical and basolateral compartments, primary human UTEC and FTEC were cultured in Human Extracellular Matrix (Becton Dickenson, Franklin Lakes, N.J., USA)-coated Falcon cell culture inserts in 24-well culture plates (Fisher Scientific, Pittsburgh, Pa., USA). For these experiments, apical and basolateral compartments contained 300 and 850 μL of complete medium, respectively. The medium was changed every 2 days. […]
(§4) Concentrations of CCL20/MIP3α in the apical and basolateral supernatants from human primary UTEC and FTEC were determined with an ELISA Duoset kit (R&D Systems, Minneapolis, Minn., USA) according to the manufacturer's protocol. Amounts of CCL20/MIP3α were quantified based on a standard curve after OD measurements at 450 nm on an ELISA reader (Dynex, Chantilly, Va., USA).
(§5) Real-time RT-PCR was carried with a two-step protocol as described herein. […] As indicated herein, the software calculates the threshold cycle (Ct) for each reaction which was used to quantify the amount of starting template in the reaction.

[2] = test system: uterine epithelial cells (UTEC); experiment: CCL20/MIP3α production by uterine (endometrium) epithelial cells on TLR agonist treatment; assay type: cell-based, human
Description: as §1, §2, §3, §4, §5

[3] = test system: Fallopian tube, endocervix, and ectocervix epithelial cells; experiment: Trappin-2/Elafin production by Fallopian tube, endocervix and ectocervix epithelial cells on Poly(I:C) stimulation; assay type: cell-based, human; conditions: 4-6 patients per compartment
Experimental: (§6) Materials & Methods. A total of 11 different patients were used to obtain epithelial cells from the uterus, Fallopian tube, endocervix and ectocervix. Epithelial cells were isolated according to known methods (Fahey, et al. (1999) Am. J. Reprod. Immunol. 42(1):49-57; Fahey et al. (1998) Immunol. Invest. 27(3):167-80). Briefly, tissues were rinsed with 1×PBS and minced into 1-2 mm fragments prior to subjecting them to enzymatic digestion for 2 hours at 37° C. The enzyme mixture contained 3.4 mg/ml pancreatin (Invitrogen Life Technologies, Carlsbad, Calif.), 0.1 mg/ml hyaluronidase (Worthington Biochemical, Lakewood, N.J.), 1.6 mg/ml collagenase (Worthington Biochemical), and 2 mg/ml D-glucose, in 1×HBSS (Invitrogen Life Technologies). […] Epithelial cell sheets retained on the filter were recovered by rinsing and backwashing, centrifuged at 500×g for 10 minutes and analyzed for cell number and viability. […]
(§7) Concentrations of Trappin-2/Elafin in the apical and basolateral supernatants from primary FRT epithelial cells and CVL from HIV(+) and (−) women were determined with an ELISA Duoset kit (R&D Systems, Minneapolis, Minn., USA) according to the manufacturer's protocol. […] Amounts of Trappin-2/Elafin were measured based on a standard curve after OD measurements at 450 nm on an ELISA reader (Dynex, Chantilly, Va., USA). […]

uterine epithelial cells = experiment: Trappin-2/Elafin production by uterine epithelial cells on Poly(I:C) stimulation; assay type: cell-based, human; conditions: 24 hour conditioned media, ELISA
Experimental: as §6, §7

HIV-1 X4/T-tropic IIIB = experiment: TZM-bl infectivity assay, HIV-1 IIIB; assay type: cell-based; conditions: for post-infection inhibition, IIIB: 1 ng/ml
Experimental: (§8) The TZM indicator cell line is a HeLa cell derivative that expresses high levels of CD4, CCR5 and CXCR4 (Wei, et al. (2002) Antimicrob. Agents Chemother. 46(6):1896-905). The cells contain HIV long terminal repeat (LTR)-driven β-galactosidase and luciferase reporter cassettes that are activated by HIV tat expression.
(§9) TZM cells were seeded at 2×10^4 cells per well in a 96-well microtiter plate and allowed to adhere overnight at 37° C. Varying doses of recombinant human Trappin-2/Elafin (Peprotech, Rocky Hill, N.J.) were incubated with HIV-1 IIIB and BaL at multiplicity of infection (MOI) 1 for 1 hour at 37° C. in a final volume of 100 μl. Following incubation, the media was aspirated from TZM cells and the virus plus Trappin-2/Elafin was added to the cells along with 100 μl of TZM media. Luciferase activity was measured after 48 hours at 37° C. with 5% CO2 in a humidified incubator. Briefly, the supernatants were aspirated, and the cells were lysed with a BETA GLO luciferase assay substrate. Light intensity of each well was measured using a luminometer. Uninfected cells were used to determine background luminescence. All infectivity assays were performed in quadruplicate.
(§10) Other experiments were conducted in order to determine whether the inhibitory effects of Trappin-2/Elafin were at the cell surface level such as the blocking of a co-receptor. For these experiments, varying doses of Trappin-2/Elafin were directly added to TZM cells and incubated for 1 hour at 37° C. prior to washing with 1×PBS and addition of IIIB or BaL viruses. In additional experiments to determine possible post-infection mechanisms of inhibition by Trappin-2/Elafin, TZM cells were infected with HIV-1 IIIB and BaL at MOI 1 and were washed at 6 hours and 24 hours post-infection followed by the addition of 10 ng/ml rTrappin-2/Elafin. Assays were developed at 48 hours by addition of the BETA-GLO substrate and measuring relative light units using a luminometer.
(§11) Since HIV-1 is an important sexually transmitted pathogen, the activity of recombinant Trappin-2/Elaf in (rTrappin-2/Elafin) was evaluated against HIV-1 X4/T-tropic IIIB and R5/M-tropic BaL. HIV-1 IIIB and BaL were incubated with rTrappin-2/Elafin at 0.01, 0.1, 1, and 10 ng/ml for 1 hour at 37° C. TZM-bl indicator cells were plated the previous day at 25,000 cells per well and grown to 70-80% confluence. The virus-Trappin-2/Elafin mixture was added to the TZM cells and incubated for 48 hours at 37° C. At the end of the incubation period, BETA-GLO substrate was added to the cells and viral infection was quantified using a luminometer, expressed as relative light units (RLU). The data was expressed as percent of control with virus-only control set at 100%. […] Therefore, the concentrations of Trappin-2/Elafin showing anti-HIV-1 activity were in the range of physiological levels of this molecule that were secreted by the FRT epithelial cells. Since the inhibitory activity was observed as a result of pre-incubation of HIV-1 and rTrappin-2/Elafin, it is contemplated that the effect of Trappin-2/Elafin on viral infection was direct. […]
(§12) Laboratory-adapted viral strains HIV-1 IIIB (×4) and BaL (R5) were obtained and virus stocks were propagated in PHA-stimulated human PBMC and stored frozen at −80° C. Virus stocks produced in PBMC of molecularly cloned HIV-1 NL4.3 (×4; lab-adapted) and YU-2.c (R5; directly cloned without culture) were obtained. Virus titers were determined on TZM-bl cells as described herein. Also used was a PBMC-derived virus stock of pCH077.c, a recently generated Clade B infectious molecular clone matching the nucleotide sequence determined to be the transmitted/founder virus sequence of CHAVI subject 700010077. […]

HIV-1 R5/M-tropic BaL = experiment: TZM-bl infectivity assay, HIV-1 BaL; assay type: cell-based
Experimental: as §8, §9, §10, §11, §12

TZM cells = assay type: cell-based, human
Experimental: Viability of TZM cells upon treatment with Trappin-2/Elafin and CVL was quantified using the […] 96° AQueous One Solution Cell Proliferation Assay (Promega) according to manufacturer's instructions. Briefly, reagent was added directly to cell cultures and incubated for 1 hour at 37° C. followed by reading the plate in a plate reader at OD 490 nm.

[4] = cells pre-incubated with 0.1 and 1 ng/ml 1 hour, washed
[5] = virus pre-incubated 1 hour with 0.01, 0.1, 1, 10 ng/ml, 48 hours

Row | Substance | samples with CCL20/MIP3α mRNA upregulation ([1]; Poly(I:C) 24 hours) | Fallopian tube CCL20/MIP3α secretion ([1]; Poly(I:C) 24 hours, ELISA) | CCL20/MIP3α level secreted by Fallopian tube cells ([1]; stimulated with Poly(I:C), constitutive 5-12 ng/mL) | CCL20/MIP3α mRNA upregulation ([2]; Poly(I:C) 25 μg/mL, 24 hours, five out of five patients) | endometrium CCL20/MIP3α secretion ([2]; Poly(I:C) 24 hours, ELISA) | CCL20/MIP3α level secreted by endometrium cells ([2]; stimulated with Poly(I:C), constitutive 0.2-7 ng/mL) | fraction of patients upregulating Trappin-2/Elafin [3] | Trappin-2/Elafin secretion by UT epithelial cells (uterine epithelial cells) | post-infection inhibition, IIIB (HIV-1 X4/T-tropic IIIB; added 6 hours post-infection) | post-infection inhibition, IIIB (HIV-1 X4/T-tropic IIIB; added 24 hours post-infection) | infectivity of TZM cells by IIIB after pre-exposure of the cells (HIV-1 X4/T-tropic IIIB; [4]) | inhibition of IIIB (HIV-1 X4/T-tropic IIIB; [5]) | post-infection inhibition, BaL (HIV-1 R5/M-tropic BaL; added 6 and 24 hours post-infection, 1 ng/ml) | infectivity of TZM cells by BaL after pre-exposure of the cells (HIV-1 R5/M-tropic BaL; [4]) | inhibition of BaL (HIV-1 R5/M-tropic BaL; [5]) | toxic effect on the TZM cells (viability) (TZM cells)
1 | Poly(I:C) | two out of four samples | significant increase | 13 to 20 ng/mL | greater than two-fold | significant increase | 5 to 12 ng/mL | approximately ⅓ typically responded | significantly increased |  |  |  |  |  |  |  | 
2 | rTrappin-2/Elafin: recombinant human Trappin-2/Elafin (Peprotech), serine protease inhibitor (AQEPVKGPVSTKPGSCPIILIRCAMLNPPNRCLKDTDCPGIKKCCEGSCGMACFVPQ; UniProt P19957 61-117, looked up) |  |  |  |  |  |  |  |  | no significant post-infection inhibition | slight inhibition | no effect | ~80% | no significant post-infection inhibition | no effect | ~60% | not due to toxic effect
